Measurements from patent US4310521A, “Aspirin-isopropylantipyrine” (Toho Pharmaceutical Co., Ltd., priority 1979, dated 1982).
“Also recorded” adds a separate entry of the source. Where two headings read alike, the source gives them in different places.

Experiments:
[1] = tested on: mice (acetic acid writhings); experiment: Inhibition of acetic acid-induced writhing in mice (analgetic activity); assay type: in vivo; conditions: for No. of Writhings: 30 minutes before acetic acid i.p., control 32.2 ± 3.7; for Inhibition (%): writhing, based on the control group
Experimental: The number of writhings that occurred when mice were administered an acetic acid solution intraperitoneally were counted, and the rate of inhibition based on the control group was calculated. The test compounds were administered to the mice 30 minutes before the acetic acid solution was administered.

[2] = tested on: excised intestinal tract of rats; experiment: Inhibition of induced contraction of excised intestinal tract; conditions: 100 μg/ml
[3] = tested on: stomach, glandular portion; experiment: Gastric ulcerogenic activity, pylorus-ligated rats; assay type: in vivo; conditions: for Length of Stomach Lesion (cm): pylorus-ligated rats, oral, 100 mg/kg, 7 hours
Experimental: Immediately after ligation of the pylorus of fasted rats, the test compounds were administered orally. The stomachs were removed 7 hours later, and the lengths of the lesions in the glandular portion were measured.

[4] = tested on: stomach, glandular portion; experiment: Gastric ulcerogenic activity, adjuvant-administered rats; assay type: in vivo; conditions: oral, 200 mg/kg per day, 21 days, control 0.05 ± 0.048, *P < 0.05
Experimental: On the other hand, after administering an adjuvant, the rats were orally administered […] of the test compounds per day for 21 days. On the 21st day the stomachs were removed, and the lengths of the lesions in the glandular portion were measured.

adjuvant arthritis = experiment: Adjuvant arthritis (anti-inflammatory activity); assay type: in vivo; conditions: rats, 200 mg/kg per day, 21 days, FIG. 3, in words
Experimental: On the other hand, an adjuvant was administered subcutaneously to only the foot pad of the left hind paw, and 200 mg/kg per day of the test compounds were administered daily for 21 days. The rate of increase in the volume of the both hind paws were measured daily and designated as the rate of swelling (%).

[5] = Hygroscopicity and stability; assay type: physicochemical; conditions: in words, no test described; listed as formula (I)
[6] = tested on: mouse tail (pain threshold, heat); experiment: Prolongation time of pain threshold of mouse tail, D'Amour-Smith Method (analgetic activity); assay type: in vivo; conditions: mice, s.c., 200 mg/kg AIA vs 200 mg/kg aspirin, FIG. 1
Experimental: Further, the prolongation time of pain threshold of mouse tail was determined in accordance with the D'Amour-Smith Method (J. Pharmacol. Exp. Ther., 72, 74 (1941)). After the subcutaneous administration of the test compounds to mice, the tails of mice were exposed to heat and the prolongation time of pain threshold was determined.

rats (E. coli pyrogen) = experiment: Antipyretic activity, E. coli suspension as pyrogen; assay type: in vivo; conditions: s.c., 100 mg/kg, 2 hours after pyrogen
Experimental: Rats received a sterilized E. coli suspension (1 platinum loop/2 ml saline, 0.5 ml/100 g, i.v.) as a pyrogen, and 2 hours later the test compounds were injected subcutaneously. The temperature was taken at hourly intervals before and after injection of the test compounds.

carrageenin edema = experiment: Carrageenin edema of hind paw (anti-inflammatory activity); assay type: in vivo; conditions: rats, s.c., 50 and 100 mg/kg, FIG. 2, in words
Experimental: Rats were subcutaneously administered the test compounds, and 30 minutes later a carrageenin solution was administered subcutaneously to the foot pad of the rats. The volume of the hind paw was measured at prescribed intervals after the administration of the carrageenin, and the rate of increase in the volume of the paw was calculated and designated as the rate of swelling (%).

Solubility = assay type: physicochemical
Acute toxicity (LD 50) = assay type: in vivo; conditions: mouse, in vivo, male ddy mice
Experimental: (§1) The acute toxicity of AIA was tested using male mice (ddy, body weight 18-25 g), and the dose at which 50% of the animal population were killed (LD 50) was determined.

male mice = experiment: Acute toxicity (LD 50); assay type: in vivo; conditions: male ddy mice, in words
Experimental: as §1

[7] = background statement on aspirin; cited from earlier work
[8] = ip, intraperitoneal, read-out: LD 50 (g/kg), Intraperitoneal administration
[9] = sc, subcutaneous, read-out: LD 50 (g/kg), Subcutaneous administration
[10] = oral, read-out: LD 50 (g/kg), Oral administration

## CC(=O)Oc1ccccc1C(=O)NCc1c(C(C)C)c(=O)n(-c2ccccc2)n1C [AIA, N-3'a-propylphenazonyl-2-acetoxybenzamide]
[1]; 50 mg/kg
  No. of Writhings: 22.1 ± 3.3
  Inhibition (%): 31.4%
[1]; 100 mg/kg
  No. of Writhings: 18.3 ± 1.7
  Inhibition (%): 43.2%
[1]; in words
  Analgetic activity (writhing) compared with aspirin: analgetic activity comparable to that of aspirin
[2]; acetylcholine
  Inhibition of contraction induced by acetylcholine: inhibit the contraction
[2]; barium chloride
  Inhibition of contraction induced by barium chloride: inhibit the contraction
[2]; histamine
  Inhibition of contraction induced by histamine: inhibit the contraction
[3]
  Length of Stomach Lesion (cm): 0.11 ± 0.09 cm
[3]; rats, in words, Tables 2A and 2B
  Injury to the stomach (Tables 2A and 2B): little or no injury is caused to the stomach
[4]
  Length of Stomach Lesion (cm): 0.04 ± 0.031 cm
Adjuvant arthritis
  Inhibitory effect on adjuvant arthritis compared with aspirin: inhibitory effect on adjuvant arthritis comparable to that of aspirin
[5]
  Hygroscopicity: free of hygroscopicity; also recorded: not hygroscopic
  Stability: stable; also recorded: good stability
[6]
  Analgetic activity (prolongation of pain threshold) compared with aspirin: stronger analgetic activity than the group administered 200 mg/kg of aspirin
Rats (E. coli pyrogen)
  Antipyretic activity: demonstrated antipyretic activity
Carrageenin edema
  Inhibition of carrageenin edema formation: has the activity of inhibiting carrageenin edema formation
Solubility; acetone
  Solubility in acetone: dissolves readily
Solubility; chloroform
  Solubility in chloroform: dissolves fairly well
Solubility; ethanol
  Solubility in ethanol: dissolves readily
Solubility; methanol
  Solubility in methanol: dissolves readily
Solubility; water
  Solubility in water: practically insoluble
Acute toxicity (LD 50); [8]
  LD50: 3.67 ± 0.07 g/kg
Acute toxicity (LD 50); [9]
  LD50: > 5 g/kg
Acute toxicity (LD 50); [10]
  LD50: > 5 g/kg
Male mice
  Acute toxicity compared with aspirin: extremely low as compared with that of aspirin

## CC(=O)Oc1ccccc1C(=O)O [Aspirin, acetylsalicylic acid]
[1]; 50 mg/kg
  No. of Writhings: 17.2 ± 4.0
  Inhibition (%): 46.6%
[1]; 100 mg/kg
  No. of Writhings: 15.3 ± 2.4
  Inhibition (%): 52.5%
[3]
  Length of Stomach Lesion (cm): 4.13 ± 1.24 cm
[4]
  Length of Stomach Lesion (cm): 3.29 ± 1.37 cm
[7]
  Hygroscopicity: hygroscopic
Acute toxicity (LD 50); [8]
  LD50: 0.76 ± 0.09 g/kg
Acute toxicity (LD 50); [9]
  LD50: 1.02 ± 0.11 g/kg
Acute toxicity (LD 50); [10]
  LD50: 11.6 ± 0.07 g/kg
